Laboratory results taken from ChEMBL document CHEMBL1129369, “Forskolin carbamates: binding and activation studies with type I adenylyl cyclase” (J Med Chem, 1996).

Legend:
Adenylate cyclase type 1 [1] = molecular target: T1, Adenylate cyclase type 1 (Homo sapiens, UniProt Q08828); assay: Maximum stimulation activity measured with 100 uM forskolin mediated by Adenylate cyclase 1; format: functional
Target sequence in this assay (Q08828 whole entry, looked up): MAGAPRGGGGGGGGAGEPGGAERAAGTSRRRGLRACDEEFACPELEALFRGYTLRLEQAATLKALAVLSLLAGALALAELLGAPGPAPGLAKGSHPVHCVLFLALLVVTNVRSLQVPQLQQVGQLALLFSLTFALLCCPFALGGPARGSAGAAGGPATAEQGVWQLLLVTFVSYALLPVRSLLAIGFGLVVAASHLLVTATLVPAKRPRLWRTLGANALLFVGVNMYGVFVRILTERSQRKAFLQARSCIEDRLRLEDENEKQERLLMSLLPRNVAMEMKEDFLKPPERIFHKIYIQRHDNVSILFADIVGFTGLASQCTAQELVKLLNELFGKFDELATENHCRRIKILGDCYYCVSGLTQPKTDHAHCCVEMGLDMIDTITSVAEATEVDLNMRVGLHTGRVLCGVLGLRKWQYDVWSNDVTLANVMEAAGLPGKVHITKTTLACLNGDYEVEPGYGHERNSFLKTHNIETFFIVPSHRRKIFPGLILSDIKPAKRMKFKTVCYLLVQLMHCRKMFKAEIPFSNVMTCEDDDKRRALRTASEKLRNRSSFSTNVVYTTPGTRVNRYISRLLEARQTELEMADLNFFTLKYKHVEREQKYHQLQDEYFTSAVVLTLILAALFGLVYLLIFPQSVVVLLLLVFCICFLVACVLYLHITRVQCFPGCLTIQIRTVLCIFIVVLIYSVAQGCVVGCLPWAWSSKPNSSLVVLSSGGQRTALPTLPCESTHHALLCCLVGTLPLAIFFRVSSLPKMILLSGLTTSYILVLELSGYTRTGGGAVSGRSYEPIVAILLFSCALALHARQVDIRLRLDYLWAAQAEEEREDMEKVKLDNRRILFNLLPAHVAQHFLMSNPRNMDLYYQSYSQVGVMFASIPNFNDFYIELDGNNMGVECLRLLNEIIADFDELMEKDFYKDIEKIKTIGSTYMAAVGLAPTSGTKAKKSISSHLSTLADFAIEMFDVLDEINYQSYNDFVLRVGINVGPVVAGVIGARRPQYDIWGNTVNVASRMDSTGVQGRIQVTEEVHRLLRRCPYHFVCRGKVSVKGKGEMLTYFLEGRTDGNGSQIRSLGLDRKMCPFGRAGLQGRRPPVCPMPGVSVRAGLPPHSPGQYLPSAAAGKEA

Adenylate cyclase type 1 [2] = molecular target: T1, Adenylate cyclase type 1; assay: Ability to activate the conversion of [32P] ATP to [32P]-cyclic AMP mediated by adenylate cyclase 1; format: functional
Target sequence in this assay (Q08828 whole entry): as the sequence (Q08828 whole entry, looked up) above

Adenylate cyclase type 1 [3] = molecular target: T1, Adenylate cyclase type 1; assay: Conversion of [32P] ATP to [32P]-cyclic AMP mediated by adenylate cyclase 1; format: functional; conditions: read-out: EC50
Target sequence in this assay (Q08828 whole entry): as the sequence (Q08828 whole entry, looked up) above

Adenylate cyclase type 1 [4] = molecular target: T1, Adenylate cyclase type 1; assay: (§1) Inhibition of [125 I]6-IHPP-forskolin binding to adenylate cyclase 1
Target sequence in this assay (Q08828 whole entry): as the sequence (Q08828 whole entry, looked up) above

Adenylate cyclase type 1 [5] = molecular target: T1, Adenylate cyclase type 1; assay: as §1; remark: listed apart in the source
Target sequence in this assay (Q08828 whole entry): as the sequence (Q08828 whole entry, looked up) above

Adenylate cyclase type 1 [6] = molecular target: T1, Adenylate cyclase type 1; assay: (§2) Inhibition of [125 I]6-IHPP-forskolin binding to Adenylate cyclase 1; format: functional
Target sequence in this assay (Q08828 whole entry): as the sequence (Q08828 whole entry, looked up) above

Adenylate cyclase type 1 [7] = molecular target: T1, Adenylate cyclase type 1; assay: Maximum stimulation activity measured with 100 uM forskolin mediated by adenylate cyclase 1; format: functional
Target sequence in this assay (Q08828 whole entry, looked up): as above

Adenylate cyclase type 2 = Adenylate cyclase type 2 (Rattus norvegicus, UniProt P26769); assay: Ability to activate the conversion of [32P] ATP to [32P]-cyclic AMP; format: functional
Adenylate cyclase type 2, sequence (P26769 whole entry): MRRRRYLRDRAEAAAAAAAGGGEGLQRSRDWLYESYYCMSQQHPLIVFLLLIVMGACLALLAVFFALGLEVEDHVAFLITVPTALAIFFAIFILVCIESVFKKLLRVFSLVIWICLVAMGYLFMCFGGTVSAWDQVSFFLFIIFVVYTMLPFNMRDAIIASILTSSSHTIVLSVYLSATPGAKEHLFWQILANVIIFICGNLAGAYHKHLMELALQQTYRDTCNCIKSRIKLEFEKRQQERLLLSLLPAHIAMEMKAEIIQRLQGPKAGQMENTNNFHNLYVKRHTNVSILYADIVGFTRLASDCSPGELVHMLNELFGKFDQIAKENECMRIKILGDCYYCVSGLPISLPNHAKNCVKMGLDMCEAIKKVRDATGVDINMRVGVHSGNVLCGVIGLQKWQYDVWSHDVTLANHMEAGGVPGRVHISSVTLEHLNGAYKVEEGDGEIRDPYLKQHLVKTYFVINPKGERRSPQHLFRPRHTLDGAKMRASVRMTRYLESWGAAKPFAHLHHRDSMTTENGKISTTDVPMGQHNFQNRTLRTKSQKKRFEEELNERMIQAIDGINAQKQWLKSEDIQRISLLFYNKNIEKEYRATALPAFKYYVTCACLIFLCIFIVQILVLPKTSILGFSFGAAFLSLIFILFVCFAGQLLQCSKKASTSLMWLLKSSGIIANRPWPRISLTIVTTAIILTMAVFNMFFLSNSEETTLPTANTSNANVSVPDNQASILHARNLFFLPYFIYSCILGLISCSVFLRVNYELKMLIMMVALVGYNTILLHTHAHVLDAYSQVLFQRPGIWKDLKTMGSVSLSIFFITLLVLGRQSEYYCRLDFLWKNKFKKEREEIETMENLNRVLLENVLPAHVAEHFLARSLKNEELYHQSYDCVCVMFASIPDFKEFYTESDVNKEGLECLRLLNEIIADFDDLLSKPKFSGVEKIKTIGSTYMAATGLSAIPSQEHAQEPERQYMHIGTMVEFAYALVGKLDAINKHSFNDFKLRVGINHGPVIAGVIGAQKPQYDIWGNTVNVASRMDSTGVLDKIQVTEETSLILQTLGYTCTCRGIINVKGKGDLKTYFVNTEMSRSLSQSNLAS

Adenylate cyclase type 1 [8] = molecular target: T1, Adenylate cyclase type 1; assay: as §2
Target sequence in this assay (Q08828 whole entry): as the sequence (Q08828 whole entry, looked up) above

| Compound | Activity (Adenylate cyclase type 1 [1]) | EC50 (Adenylate cyclase type 1 [2]) | EC50 (Adenylate cyclase type 1 [3]) | IC50 (Adenylate cyclase type 1 [4]) | IC50 (Adenylate cyclase type 1 [5]) | IC50 (Adenylate cyclase type 1 [6]) | Activity (Adenylate cyclase type 1 [7]) | EC50 (Adenylate cyclase type 2) | IC50 (Adenylate cyclase type 1 [8]) |
| --- | --- | --- | --- | --- | --- | --- | --- | --- | --- |
| C=C[C@@]1(C)CC(=O)[C@]2(O)[C@@]3(C)[C@@H](O)CCC(C)(C)[C@@H]3[C@H](O)[C@H](OC(=O)NCCc3ccc(N)cc3)[C@@]2(C)O1 | 68% | < 2000 nM | 1100 nM | 64 nM | < 150 nM | – | – | – | – |
| C=C[C@@]1(C)CC(=O)[C@]2(O)[C@@]3(C)[C@@H](O)CCC(C)(C)[C@@H]3[C@H](O)[C@H](OC(=O)NCCO)[C@@]2(C)O1 | 119% | < 2000 nM | 1400 nM | 43 nM | < 150 nM | – | – | – | – |
| C=C[C@@]1(C)CC(=O)[C@]2(O)[C@@]3(C)[C@@H](O)CCC(C)(C)[C@@H]3[C@H](O)[C@H](OC(C)=O)[C@@]2(C)O1 [COLFORSIN] | – | – | 500 nM | 41 nM | – | – | 100% | < 2000 nM | < 150 nM |
| C=C[C@@]1(C)CC(=O)[C@]2(O)[C@@]3(C)[C@@H](O)CCC(C)(C)[C@@H]3[C@H](OC(=O)NCCC)[C@H](OC(C)=O)[C@@]2(C)O1 | – | > 2000 nM | 4300 nM | 76 nM | < 150 nM | – | 80% | – | – |

Other lines, results leading:

| Activity (Adenylate cyclase type 1 [1]) | EC50 (Adenylate cyclase type 1 [2]) | EC50 (Adenylate cyclase type 1 [3]) | IC50 (Adenylate cyclase type 1 [4]) | IC50 (Adenylate cyclase type 1 [5]) | IC50 (Adenylate cyclase type 1 [6]) | Activity (Adenylate cyclase type 1 [7]) | EC50 (Adenylate cyclase type 2) | IC50 (Adenylate cyclase type 1 [8]) | Compound |
| --- | --- | --- | --- | --- | --- | --- | --- | --- | --- |
| 81% | < 2000 nM | 1200 nM | 184 nM | > 150 nM | – | – | – | – | C=C[C@@]1(C)CC(=O)[C@]2(O)[C@@]3(C)[C@@H](O)CCC(C)(C)[C@@H]3[C@H](O)[C@H](OC(=O)NCCN3CCCCC3)[C@@]2(C)O1 |
| 84% | > 2000 nM | 3100 nM | 318 nM | > 150 nM | – | – | – | – | C=C[C@@]1(C)CC(=O)[C@]2(O)[C@@]3(C)[C@@H](O)CCC(C)(C)[C@@H]3[C@H](OC(=O)NCCOC)[C@H](O)[C@@]2(C)O1 |
| 89% | > 2000 nM | 2200 nM | 228 nM | > 150 nM | – | – | – | – | C=C[C@@]1(C)CC(=O)[C@]2(O)[C@@]3(C)[C@@H](O)CCC(C)(C)[C@@H]3[C@H](O)[C@H](OC(=O)NCCN(C)C)[C@@]2(C)O1 |
| – | > 2000 nM | 4900 nM | 555 nM | – | > 150 nM | 61% | – | – | C=C[C@@]1(C)CC(=O)[C@]2(O)[C@@]3(C)[C@@H](O)CCC(C)(C)[C@@H]3[C@H](OC(=O)NCCC)[C@H](O)[C@@]2(C)O1 |
| – | < 2000 nM | 1000 nM | 433 nM | > 150 nM | – | 51% | – | – | C=C[C@@]1(C)CC(=O)[C@]2(O)[C@@]3(C)[C@@H](O)CCC(C)(C)[C@@H]3[C@H](OC(=O)NCC3CCCCC3)[C@H](O)[C@@]2(C)O1 |
